Measured values: patent US12599648B2, “Pharmaceutical composition comprising a combination of a guanylate cyclase C (GUCY2C) agonist and a short-chain fatty acid or prodrug thereof” (priority 2020, dated 2026)
Bridge positions count the residues as written; N and C are the ends. Peptide text beside a SMILES is read from it.

Columns and labels:
[1] = system: colonic tumors after AOM/DSS treatment; details: diet supplemented with tributyrin; Donohoe et al.; cited from earlier work
[2] = cited from earlier work
[3] = Caecum and colon weight and diarrhea observation in the AOM/DSS mouse trial; assay type: in vivo, wild type mice (BALB/c)
Source text: Thirty wild type mice (BALB/c) were maintained in individually ventilated cages (specific pathogen-free conditions) and divided in four age- and gender-matching groups at the age of 4 weeks. The schematic study set up of the mouse trial using AOM/DSS-based CRC mouse model is represented in FIG. 1.
Accordingly, group A received a semi-synthetic control diet (Hoevenaars F P M, van Schothorst E M, Horakova O, Voigt A, Rossmeisl M, Pico C, Caimari A, Kopecky J, Klaus S, Keijer J. BIOCLAIMS standard diet (BIOsd): a reference diet for nutritional physiology. Genes Nutr. 2012; 7:399-404), group B received a semi-synthetic diet with fiber-supplementation (containing about 46,2 g resistant starch type 2 per 1 kg diet), group C received a semi-synthetic control diet with linaclotide supplementation in drinking water (0.069 μg/mL; replaced every second day; dosage of linaclotide was calculated based on a previous study that applied 0.207 μg/day/mouse via oral gavage (Sharman S K, Islam B N, Hou Y, Singh N, Berger F G, Sridhar S, Yoo W, Browning D D. Cyclic-GMP-Elevating Agents Suppress Polyposis in ApcMin Mice by Targeting the Preneoplastic Epithelium. Cancer Prev Res (Phila Pa). 2018; 11:81-92.) and an assumed daily intake of 3 mL H2O per mouse; this mimics a daily intake of about 0.6 mg in a 70 kg healthy human, which is close to amounts used in previous clinical studies (Weinberg D S, Lin J E, Foster N R, Della'Zanna G, Umar A, Seisler D, Kraft W K, Kastenberg D M, Katz L C, Limburg P J, et al. Bioactivity of Oral Linaclotide in Human Colorectum for Cancer Chemoprevention. Cancer Prev Res Phila Pa. 2017; 10:345-54.)), group D received a combination of fiber-supplemented diet (containing about 46,2 g resistant starch type 2 per 1 kg diet), and linaclotide (0.069 μg/mL).
FIGS. 4 a) to d) represent graphs on the effect of butyrate acting as osmotic antagonist of linaclotide or GUCY2C signaling limiting the flow of H2O to the gut lumen. […] Single dots represent single mice; statistical analysis using One-way ANOVA with Kruskal-Wallis post-test, *=p<0.05. **=p<0.01.

[4] = in vivo; cited from earlier work

SMILES	tumor levels in the colon after AOM/DSS treatment [1]	solubility in water [2]	caecum weight (indication of amounts of H2O in the gut lumen) ([3]; FIG. 4a)	colon weight (indication of amounts of H2O in the gut lumen) ([3]; FIG. 4b)	side effect diarrhea ([3]; at the administered linaclotide concentration (0.069 μg/mL drinking water))	people taking the drug who have diarrhea [4]
CCCC(=O)OCC(COC(=O)CCC)OC(=O)CCC [Tributyrin, 1,3-di(butanoyloxy)propan-2-yl butanoate]	lowest tumor levels	only poorly soluble	–	–	–	–
C[C@@H]1NC(=O)[C@@H]2CCCN2C(=O)[C@H](CC(N)=O)NC(=O)[C@@H]2CSSC[C@H](N)C(=O)N[C@H]3CSSC[C@H](NC1=O)C(=O)N[C@@H]([C@@H](C)O)C(=O)NCC(=O)N[C@H](C(=O)N[C@@H](Cc1ccc(O)cc1)C(=O)O)CSSC[C@H](NC(=O)[C@H](Cc1ccc(O)cc1)NC(=O)[C@H](CCC(=O)O)NC3=O)C(=O)N2 [linaclotide, Linaclotide] (H-CCEYCCNPACTGCY-OH; disulfide 1-6, 2-10, 5-13)	–	–	higher	higher	did not observe	More than 10%
